Where two headings read alike, the source gives them in different places.

Data set [1] concerns the target T1, insulin glargine (Homo sapiens, UniProt P01308, INS54RR/N110G).
T1 construct: substitution of asparagine residue A21 with a glycine residue; elongation of the C-terminal of the B chain of human insulin with two arginine residues; purchased SANOFI-AVENTIS (Lantus®); ELI LILLY (Humalog®)
The data set is described as follows: Precipitation of hydrophobized anionic molecule/insulin glargine/prandial insulin compositions in PBS/BSA (examples B15-B17). It counts as physicochemical. How it is done: The PBS/BSA mixture simulates the composition of the subcutaneous medium.
(§1) Centrifugation at 4000 rpm is carried out in order to separate the precipitate from the supernatant. The insulin glargine is then assayed in the supernatant by RP-HPLC.
This composition is added to 2 ml of PBS containing 20 mg/ml of BSA. The PBS/BSA mixture simulates the composition of the subcutaneous medium. […] Centrifugation at 4000 rpm is carried out in order to separate the precipitate from the supernatant. The insulin glargine is then assayed in the supernatant by RP-HPLC.

For data set [2], the target named is insulin glargine and prandial insulin (Homo sapiens, UniProt P01308, INS54RR/N110G).
Protocol: 0.25 ml of the insulin glulisine solution of example B3 is added to 0.75 ml of the solution of hydrophobized anionic molecule AA1/insulin glargine prepared according to the protocol described in example B6(a), so as to form 1 ml of a composition at pH 7. […] This clear solution is filtered through a 0.22 μm filter and then placed at +4° C.
0.25 ml of the insulin lispro solution of example B2 is added to 0.75 ml of the solution of hydrophobized anionic molecule AA1/insulin glargine prepared according to the protocol described in example B6(a), so as to form 1 ml of a composition at pH 7. […] This clear solution is filtered through a 0.22 μm filter and then placed at +4° C.
0.25 ml of the insulin aspart solution of example B1 is added to 0.75 ml of the solution of hydrophobized anionic molecule AA1/insulin glargine prepared in example B6(a), so as to form 1 ml of a composition at pH 7. […] This clear solution is filtered through a 0.22 μm filter and then placed at +4° C.
0.4 ml of the insulin lispro solution of example B2 is added to 0.6 ml of the solution of hydrophobized anionic molecule AA1/insulin glargine prepared in example 86(a), so as to form 1 ml of a composition at pH 7. […] This clear solution is filtered through a 0.22 μm filter and then placed at +4° C.
0.6 ml of the insulin lispro solution of example B2 is added to 0.4 ml of the solution of hydrophobized anionic molecule AA1/insulin glargine prepared in example B6(a), so as to form 1 ml of a composition at pH 7. […] This clear solution is filtered through a 0.22 μm filter and then placed at +4° C.
Compositions are prepared by mixing 0.75 ml of the hydrophobized anionic molecule AA1/insulin glargine solution prepared according to the protocol of example B6(a) with 0.25 ml of a prandial insulin, so as to form 1 ml of hydrophobized anionic molecule AA1/insulin glargine/prandial insulin composition (containing 7.5 mg/ml of hydrophobized anionic molecule AA1, 75 IU/ml of insulin glargine and 25 IU/ml of prandial insulin).
The target of data set [3] is T1, insulin glargine. Nature of the data set: Precipitation of hydrophobized anionic molecule/insulin glargine composition in PBS/BSA mixture simulating the subcutaneous medium (examples B13, B14). In kind it is physicochemical. Conditions: 1 ml composition (10 mg/ml molecule, 100 IU/ml insulin glargine) added to 2 ml PBS containing 20 mg/ml BSA. As for the experimental part:
1 ml of the insulin glargine solution of example B4 is added to 2 ml of a solution of PBS (phosphate buffered saline) containing 20 mg/ml of BSA (bovine serum albumin). The PBS/BSA mixture simulates the composition of the subcutaneous medium.
Centrifugation at 4000 rpm is carried out in order to separate the precipitate from the supernatant. The insulin glargine is then assayed in the supernatant by reverse-phase liquid chromatography (RP-HPLC).
1 ml of hydrophobized anionic molecule AA1/insulin glargine solution prepared in example B6(a) is added to 2 ml of a solution of PBS containing 20 mg/ml of BSA. The PBS/BSA mixture simulates the composition of the subcutaneous medium.
as §1
Solubilization and precipitation tests identical to those described in examples B6 and B14 were carried out with other hydrophobized anionic molecules at the same concentration of 10 mg/ml of hydrophobized anionic molecule for 100 IU/ml of insulin glargine solution.

For data set [4], the target named is T1, insulin glargine. Conditions: alone versus with the cyclodextrin, cited from earlier work.
For data set [5] the following is noted: background statement on marketed insulins; cited from earlier work.
Setting [6] is: 7.5 mg/ml AA1, 75 IU/ml insulin glargine, 25 IU/ml prandial insulin, added to 2 ml PBS containing 20 mg/ml BSA.
Where [7] appears, read: insulin glargine/insulin lispro 75/25 composition at pH 7, 1 ml added to 2 ml PBS containing 20 mg/ml BSA.

T1 sequence (P01308 90-110 N110G limits assumed): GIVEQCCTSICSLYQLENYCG
T1 sequence (P01308 25-56 limits assumed, stated change not applied): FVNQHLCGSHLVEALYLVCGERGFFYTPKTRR

Turning to “Human insulin (ActRapid ®): commercial 100 IU/ml solution of human insulin (NOVO NORDISK) [reference compound]”, the Insulin glargine precipitation entry with insulin glargine [1] (setting [6]) was “Yes”. For the same substance, the “Solubilization of insulin glargine/prandial insulin 75/25” value in data set [2] is on record as “Yes”.
On to “Insulin aspart (NovoLog ®): commercial 100 IU/ml solution of insulin aspart, fast-acting insulin analog (NOVO NORDISK) [reference compound]”, for which, in the data set with insulin glargine [1] (setting [6]), the Insulin glargine precipitation result was “Yes”. The “Solubilization of insulin glargine/prandial insulin 75/25” value in data set [2] is “Yes”.
In the case of “Insulin glulisine (Apidra ®): commercial 100 IU/ml solution of insulin glulisine, fast-acting insulin analog (SANOFI-AVENTIS) [reference compound]”, in the data set with insulin glargine [1] (setting [6]), the Insulin glargine precipitation entry is “Yes”.
Consider “Insulin lispro (Humalog ®): commercial 100 IU/ml solution of insulin lispro, fast-acting insulin analog (ELI LILLY) [reference compound]”, for which the Insulin glargine precipitation entry with insulin glargine [1] (setting [6]) is on record as “Yes”. For the same substance, the “Solubilization of insulin glargine/prandial insulin 75/25” value in data set [2] is recorded as “Yes”.
Regarding “Sodium Maltooctaosemethylcarboxylate Functionalized with Cholesteryl Leucinate [AA5]”, the Insulin glargine precipitation entry at insulin glargine [3] and on insulin glargine [1] (setting [7]) was “Yes” in each case.
As to “Sodium Maltopentaosemethylcarboxylate Functionalized with Cholesteryl Leucinate [AA4]”, the Insulin glargine precipitation result at insulin glargine [3] and at insulin glargine [1] (setting [7]) was “Yes” in each case.
With “Sodium Maltotriosemethylcarboxylate Functionalized with 3,7-dimethyl-octanoyl Phenylalaninate [AA8]”, the Insulin glargine precipitation entry at insulin glargine [3] and at insulin glargine [1] (setting [7]) was “Yes” each time.
Take “Sodium Maltotriosemethylcarboxylate Functionalized with (±)-α-tocopheryl Leucinate [AA9]”: the Insulin glargine precipitation entry at insulin glargine [3] and on insulin glargine [1] (setting [7]) was “Yes” each time.
In the case of “Sodium Maltotriosemethylcarboxylate Functionalized with Cholesteryl 2-aminoethylcarbamate [AA7]”, the Insulin glargine precipitation result at insulin glargine [3] and at insulin glargine [1] (setting [7]) was “Yes” throughout.
For the substance “Sodium Maltotriosemethylcarboxylate Functionalized with Cholesteryl Leucinate [AA1]”, the Insulin glargine precipitation result on insulin glargine [3] is “Yes”.
As to “Sodium Maltotriosemethylcarboxylate Functionalized with Cholesteryl Leucinate [AA3]”, on insulin glargine [1] (setting [7]), the Insulin glargine precipitation entry is reported as “Yes”.
For the substance “Sodium Maltotriosemethylcarboxylate Functionalized with Dilauryl Aspartate [AA6]”, the Insulin glargine precipitation result at insulin glargine [3] and on insulin glargine [1] (setting [7]) was “Yes” each time.
As to insulin glargine, the “solubility of insulin glargine” value with insulin glargine [4] (pH 7.4, phosphate buffer) was 5 µM; with insulin glargine [4] (pH 9.5), 750 µM. Further, in data set [5], the “duration of action / hypoglycemic effect” value was 24 h.
For the substance “sulfobutyl ether-β-cyclodextrin [SVE4-β-CYD]”, the “solubility of insulin glargine” value at insulin glargine [4] (pH 7.4, phosphate buffer) was 8 µM; at insulin glargine [4] (pH 9.5), 1250 µM.
